Test results reported in PubChem BioAssay AID1845202 (Molecular Pharmacology Branch, DTP, NCI, 2023).

System: DMS 114 tumor spheroids, viability % test/control
Test: Anticancer human tumor DMS 114 cell line growth inhibition;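 further: spheroids exposed to compounds for 7 days before read-out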;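 on viability, T/C: luminescence used as a proxy for viable cells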
Details: spheroids with HUVEC and MSC; for IC50: curve of first compound; for viability, T/C: stronger effect = lower value
Method in brief: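 Complex spheroids of malignant cells with endothelial cells and mesenchymal stem cells; agents alone or combined, from near clinical Cmax (or 10 microM if unknown) down in half-log steps, 0.25% DMSO final.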

`[2H]c1nc(C)nc([2H])c1-c1cc(NC[C@@H](C)c2cccc3c(C(=O)NC)ccnc23)ncn1` + Cn1nnc2c(C(N)=O)ncn2c1=O was tested, and the IC50 (second compound 1 µM) was > 10000 nM, the IC50 (second compound 3.16 µM) was > 10000 nM and the IC50 (second compound 10 µM) was > 10000 nM. The IC50 (second compound 31.6 µM) was > 10000 nM, the IC50 (second compound 100 µM) was > 10000 nM and the viability, T/C (second compound 1 µM, first compound 0.0316 µM) was 94.5%. It also gave a viability, T/C (second compound 1 µM, first compound 0.1 µM) of 104%, a viability, T/C (second compound 1 µM, first compound 0.316 µM) of 98.4% and a viability, T/C (second compound 1 µM, first compound 1 µM) of 99.5%. For the same molecule, the viability, T/C (second compound 1 µM, first compound 3.16 µM) was 97.3%, the viability, T/C (second compound 1 µM, first compound 10 µM) was 98.5% and the viability, T/C (second compound 3.16 µM, first compound 0.0316 µM) was 108%. The viability, T/C (second compound 3.16 µM, first compound 0.1 µM) was 100%, the viability, T/C (second compound 3.16 µM, first compound 0.316 µM) was 99.7% and the viability, T/C (second compound 3.16 µM, first compound 1 µM) was 102%. For the same molecule, the viability, T/C (second compound 3.16 µM, first compound 3.16 µM) was 99.9%, the viability, T/C (second compound 3.16 µM, first compound 10 µM) was 101% and the viability, T/C (second compound 10 µM, first compound 0.0316 µM) was 110%. For the same molecule, the viability, T/C (second compound 10 µM, first compound 0.1 µM) was 109%, the viability, T/C (second compound 10 µM, first compound 0.316 µM) was 98.2% and the viability, T/C (second compound 10 µM, first compound 1 µM) was 110%. It also gave a viability, T/C (second compound 10 µM, first compound 3.16 µM) of 95.5%, a viability, T/C (second compound 10 µM, first compound 10 µM) of 94.8% and a viability, T/C (second compound 31.6 µM, first compound 0.0316 µM) of 104%. The viability, T/C (second compound 31.6 µM, first compound 0.1 µM) was 99%, the viability, T/C (second compound 31.6 µM, first compound 0.316 µM) was 113% and the viability, T/C (second compound 31.6 µM, first compound 1 µM) was 107%. The viability, T/C (second compound 31.6 µM, first compound 3.16 µM) was 110%, the viability, T/C (second compound 31.6 µM, first compound 10 µM) was 95.2% and the viability, T/C (second compound 100 µM, first compound 0.0316 µM) was 93.3%. The viability, T/C (second compound 100 µM, first compound 0.1 µM) was 105%, the viability, T/C (second compound 100 µM, first compound 0.316 µM) was 98.3% and the viability, T/C (second compound 100 µM, first compound 1 µM) was 94.7%. The viability, T/C (second compound 100 µM, first compound 3.16 µM) was 84.7% and the viability, T/C (second compound 100 µM, first compound 10 µM) was 87.6%.
`Cn1ncnc1[C@H]1c2n[nH]c(=O)c3cc(F)cc(c23)N[C@@H]1c1ccc(F)cc1` + CC[C@@]1(O)C(=O)OCc2c1cc1n(c2=O)Cc2cc3c(CN(C)C)c(O)ccc3nc2-1 was tested, and the IC50 (second compound 0.003 µM) was 178 nM, the IC50 (second compound 0.00949 µM) was < 9.49 nM and the IC50 (second compound 0.03 µM) was < 9.49 nM. The IC50 (second compound 0.0949 µM) was < 9.49 nM, the IC50 (second compound 0.3 µM) was < 9.49 nM and the viability, T/C (second compound 0.003 µM, first compound 0.00949 µM) was 80.7%. For the same molecule, the viability, T/C (second compound 0.003 µM, first compound 0.03 µM) was 72.9%, the viability, T/C (second compound 0.003 µM, first compound 0.0949 µM) was 62% and the viability, T/C (second compound 0.003 µM, first compound 0.3 µM) was 38.9%. The viability, T/C (second compound 0.003 µM, first compound 0.949 µM) was 25.2%, the viability, T/C (second compound 0.003 µM, first compound 3 µM) was 8.5% and the viability, T/C (second compound 0.00949 µM, first compound 0.00949 µM) was 50.9%. For the same molecule, the viability, T/C (second compound 0.00949 µM, first compound 0.03 µM) was 37.5%, the viability, T/C (second compound 0.00949 µM, first compound 0.0949 µM) was 32.6% and the viability, T/C (second compound 0.00949 µM, first compound 0.3 µM) was 25.3%. The viability, T/C (second compound 0.00949 µM, first compound 0.949 µM) was 16.4%, the viability, T/C (second compound 0.00949 µM, first compound 3 µM) was 9.08% and the viability, T/C (second compound 0.03 µM, first compound 0.00949 µM) was 18.6%. It also gave a viability, T/C (second compound 0.03 µM, first compound 0.03 µM) of 18.6%, a viability, T/C (second compound 0.03 µM, first compound 0.0949 µM) of 16.2% and a viability, T/C (second compound 0.03 µM, first compound 0.3 µM) of 14%. For the same molecule, the viability, T/C (second compound 0.03 µM, first compound 0.949 µM) was 10%, the viability, T/C (second compound 0.03 µM, first compound 3 µM) was 4.96% and the viability, T/C (second compound 0.0949 µM, first compound 0.00949 µM) was 12.8%. For the same molecule, the viability, T/C (second compound 0.0949 µM, first compound 0.03 µM) was 10.6%, the viability, T/C (second compound 0.0949 µM, first compound 0.0949 µM) was 10.9% and the viability, T/C (second compound 0.0949 µM, first compound 0.3 µM) was 10.4%. For the same molecule, the viability, T/C (second compound 0.0949 µM, first compound 0.949 µM) was 6.74%, the viability, T/C (second compound 0.0949 µM, first compound 3 µM) was 3.77% and the viability, T/C (second compound 0.3 µM, first compound 0.00949 µM) was 7.76%. The viability, T/C (second compound 0.3 µM, first compound 0.03 µM) was 7.9%, the viability, T/C (second compound 0.3 µM, first compound 0.0949 µM) was 7.53% and the viability, T/C (second compound 0.3 µM, first compound 0.3 µM) was 5.94%. For the same molecule, the viability, T/C (second compound 0.3 µM, first compound 0.949 µM) was 5.76% and the viability, T/C (second compound 0.3 µM, first compound 3 µM) was 2.99%.
